The target of assay [1] is T1, α3β4 nicotinic acetylcholine receptor (Rattus norvegicus, UniProt P04757+P12392).
T1 construct: expressed in transfected cells; host or cells: Xenopus laevis oocytes injected with subunit cRNAs
As to the kind of experiment: Two-electrode voltage clamp of Xenopus oocytes expressing wild-type α3β4 receptors. Format: cell-based. To be noted: for Protection from residual inhibition produced by 100 μM DMXB: pre-treatment and co-application, 100 μM ACh control after 5 minute wash. How it is done: (§1) Preparation of RNA. After linearization and purification of cloned cDNAs, RNA transcripts were prepared in vitro using the appropriate mMessage mMachine kit from AMBION Inc. (Austin, Tex.).
(§2) Expression in Xenopus oocytes. Mature (>9 cm) female Xenopus laevis African toads (NASCO, Ft. Atkinson, Wis.) were used as a source of oocytes. Prior to surgery, frogs were anesthetized by placing the animal in a 1.5 g/L solution of MS222 (3-aminobenzoic acid ethyl ester). Eggs were removed from an incision made in the abdomen. […] Subsequently, stage 5 oocytes were isolated and injected with 50 nl (5-20 ng) each of a mixture of the appropriate subunit cRNAs following harvest. Recordings were made 1 to 7 days after injection depending on the cRNAs being tested.
(§3) Electrophysiology. […] Data were acquired using Labview software (NATIONAL INSTRUMENTS) or pClamp8 (AXON INSTRUMENTS) and filtered at a rate of 6 Hz. […] A Mariotte flask filled with Ringer's solution was used to maintain a constant hydrostatic pressure for drug deliveries and washes. Drugs were diluted in perfusion solution and loaded into a 2 ml loop at the terminus of the perfusion line. A bypass of the drug-loading loop allowed bath solution to flow continuously while the drug loop was loaded, and then drug application was synchronized with data acquisition by using a 2-way electronic valve. The rate of bath solution exchange and all drug applications was 6 ml/min. Current electrodes were filled with a solution containing 250 mM CsCl, 250 mM CsF and 100 mM EGTA and had resistances of 0.5-2 MΩ. Voltage electrodes were filled with 3 M KCl and had resistances of 1-3 MΩ.
(§4) Experimental protocols and data analysis. Current responses to drug application were studied under two-electrode voltage clamp at a holding potential of −50 mV unless otherwise noted. Holding currents immediately prior to agonist application were subtracted from measurements of the peak response to agonist.
(§5) The ratio of C2/C1 is referred to as the recovery response (FIGS. 2B, 3B and 3D). Measurements of C2/C1 that were <0.75 were taken to indicate that the experimental drug application produced some form of residual inhibition. An oocyte was not used for further experimental drug applications when the measurements of C2/C 1 became less than 0.75.
(§6) Means and standard errors (SEM) were calculated from the normalized responses of at least four oocytes for each experimental concentration. For concentration-response relations (FIGS. 2 & 3), data were plotted using Kaleidagraph 3.0.2 (ABELBECK SOFTWARE; Reading, Pa.), and curves were generated from the Hill equation. [formula]
(§7) In Formula I, Imax denotes the maximal response for a particular agonist/subunit combination, and n represents the Hill coefficient. Imax, n, and the EC50 were all unconstrained for the fitting procedures.
The values for the C2/C1 ratios were plotted as functions of the experimental agonist concentrations applied between the C2 and C1 control responses. The data were then fit to the Hill equation with n constrained to equal −1 for the calculation of IC50 values. Determination of significant differences between experimental and control groups (FIGS. 4A-4B and 5A-5D) was made by t-test (unpaired two-tailed).

The target of assay [2] is T2, α3β4(6′F10′T) nicotinic acetylcholine receptor (Rattus norvegicus, UniProt P04757+P12392, A272T/S268F).
T2 construct: expressed in transfected cells; host or cells: Xenopus laevis oocytes injected with subunit cRNAs; mutant made by QuikChange site-directed mutagenesis
T2 sequence (P04757 26-499): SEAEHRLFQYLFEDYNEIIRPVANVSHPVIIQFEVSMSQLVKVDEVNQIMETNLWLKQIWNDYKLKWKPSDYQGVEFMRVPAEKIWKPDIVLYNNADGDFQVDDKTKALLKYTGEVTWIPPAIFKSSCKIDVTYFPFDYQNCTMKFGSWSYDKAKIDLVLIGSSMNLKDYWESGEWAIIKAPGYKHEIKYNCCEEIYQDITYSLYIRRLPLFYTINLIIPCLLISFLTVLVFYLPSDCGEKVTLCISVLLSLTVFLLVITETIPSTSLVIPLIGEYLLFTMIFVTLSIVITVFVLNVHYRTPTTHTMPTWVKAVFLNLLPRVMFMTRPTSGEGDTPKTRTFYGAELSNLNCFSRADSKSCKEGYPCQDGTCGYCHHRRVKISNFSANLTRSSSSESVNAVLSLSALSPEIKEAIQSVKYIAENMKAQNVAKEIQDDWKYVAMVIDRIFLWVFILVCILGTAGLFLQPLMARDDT
T2 sequence (P12392 21-495 S268F/A272T): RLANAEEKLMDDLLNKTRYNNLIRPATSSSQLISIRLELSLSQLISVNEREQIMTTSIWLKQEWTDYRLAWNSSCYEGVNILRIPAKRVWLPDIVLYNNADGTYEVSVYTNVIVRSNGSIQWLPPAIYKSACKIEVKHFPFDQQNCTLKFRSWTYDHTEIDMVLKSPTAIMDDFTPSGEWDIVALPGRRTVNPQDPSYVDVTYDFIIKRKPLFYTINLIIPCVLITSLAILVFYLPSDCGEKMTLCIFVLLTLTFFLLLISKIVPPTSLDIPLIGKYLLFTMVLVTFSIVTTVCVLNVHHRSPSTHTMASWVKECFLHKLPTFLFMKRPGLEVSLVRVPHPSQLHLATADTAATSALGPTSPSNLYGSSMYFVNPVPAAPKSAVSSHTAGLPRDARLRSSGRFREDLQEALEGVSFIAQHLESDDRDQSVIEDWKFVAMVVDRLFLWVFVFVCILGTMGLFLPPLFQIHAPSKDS
As to the kind of experiment: Two-electrode voltage clamp of Xenopus oocytes expressing mutant α3β4(6′F10′T) receptors. Format: cell-based. To be noted: for Residual inhibition of mutant compared with wild-type receptor: after 5 minute wash; for Effect of hyperpolarized holding potential on residual inhibition: −100 mV versus −50 mV. As to the method:
cDNA clones. […] The sequences of the TM2 domains of the relevant subunits are shown below.
Construction of site-directed mutants. Site-directed mutagenesis was conducted with […] kits ([…], LaJolla, Calif.). In brief, two complimentary oligonucleotides were synthesized which contain the desired mutation flanked by 10-15 bases of unmodified nucleotide sequence. Using a thermal cycler, Pfu DNA polymerase extended the sequence around the whole vector, generating a plasmid with staggered nicks. […] After 12-16 cycles, the product was treated with Dpn I, which digested the methylated parent DNA into numerous small pieces. The product was then transformed into E. coli cells, which repaired the nicks. Mutations were confirmed by DNA sequencing.
as §1, §2, §3, §4, §5, §6, §7
The values for the C2/C1 ratios were plotted as functions of the experimental agonist concentrations applied between the C2 and C1 control responses. The data were then fit to the Hill equation with n constrained to equal −1 for the calculation of IC50 values.
In general terms: In two-electrode clamp one electrode senses voltage and the other passes current.

The mark [3] stands for this setting: Hill fit of peak currents, holding potential −50 mV.

Molecules are shown by their SMILES.

T1 sequence (P04757 26-499): as the sequence (P04757 26-499) above
T1 sequence (P12392 21-495): as the sequence (P12392 21-495 S268F/A272T) above, with F248S, T252A counted along it

As to `CNCC/C=C/c1cccnc1` [TC-2403, (E)-N-methyl-4-(3-pyridinyl)-3-butene-1-amine], the “n (Hill coefficient)” value in assay [1] (Hill fit of peak currents) and in assay [2] (Hill fit of peak currents) was 2.1 ± 0.2 in each case. Moreover, the “Max response (relative to ACh Maximum)” value in assay [1] (setting [3]) amounted to 0.09 ± 0.01; in assay [2] (setting [3]), 0.38 ± 0.01. The EC50 in assay [1] (activation of peak currents) was 347 ± 12 µM; in assay [2] (activation of peak currents), 111 ± 5 µM. The “Protection from residual inhibition produced by 100 μM DMXB” value is reported as “significant (p<0.05) reduction in the residual inhibition” in assay [1]; “significant protection” in assay [2] (pre-treatment and co-application, p<0.01 for TC-2403). Moreover, in assay [2] (after 1 mM TC-2403, 5 minute wash), the “Control ACh response after application, relative to pre-application control values” is 70±6%. The “Residual inhibition of mutant compared with wild-type receptor” value in assay [2] is given as “no significant increase in residual inhibition at concentrations less than 1 mM”. Besides, the “Protection from residual inhibition produced by 300 μM nicotine” value in assay [2] (pre-treatment and co-application, p<0.05 for TC-2403) is on record as “significant protection”.

With `CCCCNc1ccc(C(=O)OCCN(C)C)cc1` [tetracaine], in assay [1], the “Protection from residual inhibition produced by 100 μM DMXB” value is listed as “neither of these agents provided any protection”.

With `CN1CCCC1c1cccnc1` (single isomer, unassigned; (-)) [Nicotine, (−)-Nicotine], the figures for the “n (Hill coefficient)” value in assay [1] (Hill fit of peak currents) and in assay [2] (Hill fit of peak currents) were 1.2 ± 0.2 and 0.8 ± 0.3, respectively. For the same molecule, in assay [2] (repeated applications, data not shown), the “Persistence of residual inhibition” value is “up to an hour”. Besides, in assay [2], the “Effect of hyperpolarized holding potential on residual inhibition” value (shortened to “Effect … on residual inhibition”) is “enhanced”.

As for `CC[N+](CC)(CC)CC(=O)Nc1c(C)cccc1C` [QX-314, 2-(triethylamino)-N-(2,6-dimethylphenyl)-acetamide], in assay [1], the “Protection from residual inhibition produced by 100 μM DMXB” value is listed as “neither of these agents provided any protection”.

`COc1ccc(/C=C2\CCCN=C2c2cccnc2)c(OC)c1` [DMXB, 3-[2,4-dimethoxybenzylidene]-anabaseine]: the IC50 in assay [1] came to 121 ± 48 µM. In assay [1] (100 μM DMXB co-applied with 100 μM ACh), the “Activation on co-application with 100 μM ACh, relative to ACh alone” value turned out to be 4±0.2%. The “Effect of ACh co-application on DMXB-induced inhibition” value in assay [1] (DMXB co-applied with 100 μM ACh) is “not enhanced”. Further, the “Effect … on residual inhibition” value in assay [1] (−100 mV versus −50 mV) is reported as “enhanced”. Further, in assay [2], the IC50 came out at 23 ± 17 µM, the “Residual inhibition of mutant compared with wild-type receptor” value is on record as “more inhibition after it was applied at 100 or 300 μM” and the “Effect … on residual inhibition” value is listed as “enhanced”. In addition, the “Response to 100 μM ACh when co-applied with DMXB” value in assay [2] (30 μM DMXB co-applied with 100 μM ACh) is 13±2%. Moreover, the “Effect of ACh co-application on DMXB-induced residual inhibition” value in assay [2] (30 μM DMXB co-applied with ACh) was “large increase in the residual inhibition”.

In general, EC50 refers to the concentration that produces a half-maximal response. As usually defined, the IC50 is the concentration at which inhibition is half-maximal.

Values taken from US6852741B2, “Compositions and methods for treatment of neurological disorders” (University of Florida, priority 2001, dated 2005).
